Reference: patent publication US20260285853A1, “COMPOUNDS AND METHODS FOR MODULATING SPLICING” (REMIX THERAPEUTICS INC., priority 2023, published 2026)

Key:
Type in all cases: cell-based
HTT mRNA [1] = test: Splicing RT-qPCR assay (THP), Table 2A; settings: Table 2A, THP; for AC50: HTT alternative junction (AJ) mRNA, read-out: HTT AJ (AC50, increase in alternative junction mRNA); for IC50: HTT canonical junction (CJ) mRNA, read-out: HTT CJ (IC50, decrease in canonical junction mRNA)
[2] = tested on: SH-SY5Y (human neuroblastoma) cells; test: Cell viability, Cell Titer Glo 2.0 assay; settings: read-out: Viability SHSY5Y.3 GI50
Procedure, shortened: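 SH-SY5Y neuroblastoma cells are exposed to test compounds for 72 hours at 37 °C and 5% CO2, with final DMSO held at 0.1%. Cell viability is then measured with the CellTiter-Glo 2.0 assay.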

MYB mRNA [3] = test: Gene panel canonical junction qPCR assay, decrease in CJ mRNA, Table 3; settings: decrease in CJ mRNA levels, canonical junction qPCR, gene panel
Procedure, shortened: (§1)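 A673 cells were plated, left to adhere for 24 h, then dosed; K562 cells were plated in 96- or 384-well format and dosed directly. Both were incubated 24 h at 37 °C with an 11-point 3-fold series (top 10 uM final). Canonical junction mRNA was then read by cDNA synthesis and qPCR.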

HTT mRNA [4] = test: as above; settings: decrease in CJ mRNA levels, canonical junction qPCR, gene panel
Procedure, shortened: as §1

MYB mRNA [5] = test: Splicing RT-qPCR assay (THP), Table 2A; settings: Table 2A, THP; for AC50: MYB alternative junction (AJ) mRNA, read-out: MYB AJ (AC50, increase in alternative junction mRNA); for IC50: MYB canonical junction (CJ) mRNA, read-out: MYB CJ (IC50, decrease in canonical junction mRNA)

SMILES	AC50 (HTT mRNA [1])	IC50 (HTT mRNA [1])	GI50 [2]	IC50 (MYB mRNA [3])	IC50 (HTT mRNA [4])	AC50 (MYB mRNA [5])	IC50 (MYB mRNA [5])
Cn1cc2cc(NC(=O)c3c(O)cc(N4CCC(NC5CC5)CC4)c4cn(C)nc34)cc(CNS(C)(=O)=O)c2n1 [Compound 852]	1 to 10 µM	> 10 µM	1 to 10 µM	0.1 to 1 µM	> 10 µM	0.1 to 1 µM	0.1 to 1 µM
COc1cc(N2CCC(NC3CC3)CC2)c2cn(C)nc2c1C(=O)Nc1cc(CNS(C)(=O)=O)c2nn(C)cc2c1 [Compound 853]	> 10 µM	> 10 µM	> 10 µM	> 10 µM	> 10 µM	> 10 µM	> 10 µM
C=CCNC1CCN(c2cc(O)c(C(=O)Nc3cc(CNS(C)(=O)=O)c4nn(C)cc4c3)c3nn(C)cc23)CC1 [Compound 854]	1 to 10 µM	> 10 µM	1 to 10 µM	0.1 to 1 µM	> 10 µM	0.1 to 1 µM	0.1 to 1 µM
COc1nc2c(C(=O)Nc3cc(CNS(C)(=O)=O)c4nc(C)cn4c3)ccc(N3CCC(NC4CC4)CC3)c2s1 [Compound 855]	1 to 10 µM	1 to 10 µM	1 to 10 µM	1 to 10 µM	1 to 10 µM	1 to 10 µM	1 to 10 µM
CCNC1CCN(c2ccc(C(=O)Nc3cn4cc(C)nc(CC(=O)N(C)C)c4n3)c3nn(C)cc23)CC1 [Compound 856]	1 to 10 µM	1 to 10 µM	1 to 10 µM	1 to 10 µM	1 to 10 µM	1 to 10 µM	1 to 10 µM
CCNC1CCN(c2ccc(C(=O)Nc3cn4cc(C)nc(CC(N)=O)c4n3)c3nn(C)cc23)CC1 [Compound 857]	> 10 µM	> 10 µM	> 10 µM	> 10 µM	> 10 µM	> 10 µM	> 10 µM
Cc1cc2c(N3CCC(NC4CC4)CC3)ccc(C(=O)Nc3cc(CO)c4nn(C)cc4c3)n2n1 [Compound 858]	1 to 10 µM	1 to 10 µM	0.1 to 1 µM	0.1 to 1 µM	1 to 10 µM	0.1 to 1 µM	0.1 to 1 µM
Cc1cn2c(N3CCC(NC4CC4)CC3)ccc(C(=O)Nc3cc(CO)c4nn(C)cc4c3)c2n1 [Compound 859]	1 to 10 µM	1 to 10 µM	1 to 10 µM	0.1 to 1 µM	1 to 10 µM	0.1 to 1 µM	0.1 to 1 µM
Cc1cn2cc(NC(=O)c3ccc(N4CCC(NC5CC5)CC4)c4cn(C)nc34)nc2c(CNc2nccs2)n1 [Compound 860]	> 10 µM	> 10 µM	1 to 10 µM	> 10 µM	> 10 µM	> 10 µM	> 10 µM
Cn1cc2cc(NC(=O)c3ccc(N4CCC(NC5CC5)CC4)c4cn(C)nc34)cc(CNc3ncccn3)c2n1 [Compound 861, 4-[4-(cyclopropylamino)-1-piperidyl]-2-methyl-N-[2-methyl-7-[(pyrimidin-2-ylamino)methyl]indazol-5-yl]indazole-7-carboxamide]	> 10 µM	1 to 10 µM	1 to 10 µM	0.1 to 1 µM	1 to 10 µM	0.1 to 1 µM	0.1 to 1 µM
COc1nc2c(C(=O)Nc3cc(CO)c4nn(C)cc4c3)ccc(N3CCC(NC4CC4)CC3)c2s1 [Compound 862]	0.1 to 1 µM	0.1 to 1 µM	0.1 to 1 µM	0.1 to 1 µM	0.1 to 1 µM	0.1 to 1 µM	0.1 to 1 µM
CNCC1CN(c2ccc(C(=O)Nc3cn4cc(C)nc(CNS(C)(=O)=O)c4n3)c3nn(C)cc23)C1 [Compound 863]	> 10 µM	> 10 µM	> 10 µM	> 10 µM	> 10 µM	> 10 µM	> 10 µM
CCNC1(C)CCN(c2ccc(C(=O)Nc3cn4cc(C)nc(CNS(C)(=O)=O)c4n3)c3nn(C)cc23)CC1 [Compound 864]	> 10 µM	> 10 µM	> 10 µM	1 to 10 µM	> 10 µM	1 to 10 µM	1 to 10 µM
Cc1cn2cc(NC(=O)c3ccc(N4CCC(N)CC4)c4cn(C)nc34)nc2c(CNS(C)(=O)=O)n1 [Compound 865, 4-(4-amino-1-piperidyl)-N-[8-(methanesulfonamidomethyl)-6-methyl-imidazo[1,2-a]pyrazin-2-yl]-2-methyl-indazole-7-carboxamide]	> 10 µM	> 10 µM	> 10 µM	1 to 10 µM	> 10 µM	1 to 10 µM	1 to 10 µM
